In patent US20160271160A1, “HCV POLYMERASE INHIBITORS” (MEDIVIR AB, priority 2013, published 2016) one finds EC50 and Ki data, which are given here for 15 compounds.

The structures appear in SMILES notation. Some results are limits rather than exact numbers.

HCV NS5B-21, sequence (Q9WMX2 2420-3010): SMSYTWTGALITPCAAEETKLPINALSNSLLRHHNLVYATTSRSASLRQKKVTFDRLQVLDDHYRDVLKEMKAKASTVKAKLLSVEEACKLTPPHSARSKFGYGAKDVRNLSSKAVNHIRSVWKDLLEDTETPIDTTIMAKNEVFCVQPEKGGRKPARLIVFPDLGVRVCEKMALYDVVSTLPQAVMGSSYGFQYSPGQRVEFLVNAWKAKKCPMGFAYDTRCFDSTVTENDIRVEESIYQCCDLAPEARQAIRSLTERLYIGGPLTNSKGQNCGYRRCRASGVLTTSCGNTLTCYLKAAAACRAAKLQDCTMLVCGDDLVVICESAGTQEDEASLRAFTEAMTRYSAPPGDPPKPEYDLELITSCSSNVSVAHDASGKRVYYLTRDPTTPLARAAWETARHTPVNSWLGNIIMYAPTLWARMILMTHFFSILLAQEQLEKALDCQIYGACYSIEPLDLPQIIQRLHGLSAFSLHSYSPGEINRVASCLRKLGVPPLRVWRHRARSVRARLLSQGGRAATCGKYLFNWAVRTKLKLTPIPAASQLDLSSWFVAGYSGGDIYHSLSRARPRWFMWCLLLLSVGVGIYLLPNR

The test system of one experiment is HCV type 1b replicon in Huh-7 luc/neo (Huh-Luc) cells. Description: HCV replicon assay (Huh-Luc, luciferase readout). Type of experiment: cell-based. To be noted: Hepatitis C virus, Huh-7, 72 h. An excerpt:
The compounds of formula I may be examined for activity in the inhibition of HCV RNA replication in a cellular assay aimed at identifying compounds that inhibit a HCV functional cellular replicating cell line, also known as HCV replicons. A suitable cellular assay is based on a bicistronic expression construct, as described by Lohmann et al. (1999), Science vol. 285 pp. 110-113 with modifications described by Krieger et al. (2001), Journal of Virology 75: 4614-4624, in a multi-target screening strategy.
The assay utilizes the stably transfected cell line Huh-7 luc/neo (hereafter referred to as Huh-Luc). This cell line harbours an RNA encoding a bicistronic expression construct comprising the wild type NS3-NS5B regions of HCV type 1b translated from an Internal Ribosome Entry Site (IRES) from encephalomyocarditis virus (EMCV), preceded by a reporter portion (FfL-luciferase), and a selectable marker portion (neo^R, neomycine phosphotransferase). The construct is bordered by 5′ and 3′ NTRs (non-translated regions) from HCV type 1b. Continued culture of the replicon cells in the presence of G418 (neo^R) is dependent on the replication of the HCV RNA. The stably transfected replicon cells that express HCV RNA, which replicates autonomously and to high levels, encoding inter alia luciferase, are used for screening the antiviral compounds.
The replicon cells are plated in 384 well plates in the presence of the test and control compounds which are added in various concentrations. Following an incubation of three days. HCV replication is measured by assaying luciferase activity (using standard luciferase assay substrates and reagents and a Perkin Elmer ViewLux™ ultraHTS microplate imager). Replicon cells in the control cultures have high luciferase expression in the absence of any inhibitor. The inhibitory activity of a compound on luciferase activity is monitored on the Huh-Luc cells, enabling a dose-response curve for each test compound. EC50 values are then calculated, which value represents the amount of the compound required to decrease the level of detected luciferase activity by 50%, or more specifically, the ability of the genetically linked HCV replicon RNA to replicate, […]
Background: Replicon systems follow genome replication, usually without infectious particles.
As usually defined, the EC50 is the concentration giving half of the maximal effect. Consider `CC(C)OC(=O)[C@H](C)NP(=S)(OC[C@H]1O[C@@H](n2ccc(=O)[nH]c2=O)C(Cl)(Cl)[C@@H]1O)Oc1ccccc1` (stereo partly drawn) [Example 13, (2S)-Isopropyl 2-(((((2R,3R,5R)-4,4-Dichloro-5-(2,4-dioxo-3,4-dihydropyrimidin-1(2H)-yl)-3-hydroxytetrahydrofuran-2-yl)methoxy)(phenoxy)phosphorothioyl)amino)propanoate], for which the concentration giving a half-maximal response (EC50) was found to be 5400 nM.

Staying with this experiment, now noted: Hepatitis C virus, Huh-7, 72 h; HCV type 1b replicon, Huh-Luc cells, three days incubation, luciferase; read-out: EC50.
For `O=c1ccn([C@@H]2O[C@H](CO)[C@@H](O)C2(Cl)Cl)c(=O)[nH]1` [Example 1, 1-((2R,4R,5R)-3,3-dichloro-4-hydroxy-5-(hydroxymethyl)tetrahydrofuran-2-yl)pyrimidine-2,4(1H,3H)-dione], the EC50 is greater than 50000 nM.
For `CC[C@@H](C)OC(=O)[C@H](C)NP(=O)(OC[C@H]1O[C@@H](n2ccc(=O)[nH]c2=O)C(Cl)(Cl)[C@@H]1O)Oc1ccccc1` (stereo partly drawn) [Example 4, (2S)—(R)-Sec-butyl 2-(((((2R,3R,5R)-4,4-dichloro-5-(2,4-dioxo-3,4-dihydropyrimidin-1(2H)-yl)-3-hydroxytetrahydrofuran-2-yl)methoxy)(phenoxy)phosphoryl)amino)propanoate], the EC50 stood at 150 nM.
On the same count and under the same terms, the result for `C[C@H](NP(=O)(OC[C@H]1O[C@@H](n2ccc(=O)[nH]c2=O)C(Cl)(Cl)[C@@H]1O)Oc1ccccc1)C(=O)OC1CCCCC1` (stereo partly drawn) [Example 5, (2S)-Cyclohexyl 2-(((((2R,3R,5R)-4,4-dichloro-5-(2,4-dioxo-3,4-dihydropyrimidin-1(2H)-yl)-3-hydroxytetrahydrofuran-2-yl)methoxy)(phenoxy)phosphoryl)amino)propanoate] reads 160 nM; that for `CC[C@H](C)OC(=O)[C@H](C)NP(=O)(OC[C@H]1O[C@@H](n2ccc(=O)[nH]c2=O)C(Cl)(Cl)[C@@H]1O)Oc1ccccc1` (stereo partly drawn) [Example 6, (2S)—(S)-sec-butyl 2-(((((2R,3R,5R)-4,4-dichloro-5-(2,4-dioxo-3,4-dihydropyrimidin-1(2H)-yl)-3-hydroxytetrahydrofuran-2-yl)methoxy)(phenoxy)phosphoryl)amino)propanoate], 100 nM; that for `CC(C)OC(=O)[C@H](C)NP(=O)(OC[C@H]1O[C@@H](n2ccc(=O)[nH]c2=O)C(Cl)(Cl)[C@@H]1O)Oc1cccc(C2CCC2)c1` (stereo partly drawn) [Example 7, (2S)-isopropyl 2-(((3-cyclobutylphenoxy)(((2R,3R,5R)-4,4-dichloro-5-(2,4-dioxo-3,4-dihydropyrimidin-1(2H)-yl)-3-hydroxytetrahydrofuran-2-yl)methoxy)phosphoryl)amino)propanoate], 220 nM.
Regarding `CC(C)OC(=O)[C@H](C)NP(=O)(OC[C@H]1O[C@@H](n2ccc(=O)[nH]c2=O)C(Cl)(Cl)[C@@H]1O)Oc1cccc(C2(C)CC2)c1` (stereo partly drawn) [Example 8, (2S)-Isopropyl 2-(((((2R,3R,5R)-4,4-dichloro-5-(2,4-dioxo-3,4-dihydropyrimidin-1(2H)-yl)-3-hydroxytetrahydrofuran-2-yl)methoxy)(3-(1-methylcyclopropyl)phenoxy)phosphoryl)amino)propanoate], the EC50 amounted to 230 nM.
On to `CC(C)OC(=O)[C@H](C)NP(=O)(OC[C@H]1O[C@@H](n2ccc(=O)[nH]c2=O)C(Cl)(Cl)[C@@H]1O)Oc1ccc(C2(C)CC2)cc1` (stereo partly drawn) [Example 9, (2S)-Isopropyl 2-(((((2R,3R,5R)-4,4-dichloro-5-(2,4-dioxo-3,4-dihydropyrimidin-1(2H)-yl)-3-hydroxytetrahydrofuran-2-yl)methoxy)(4-(1-methylcyclopropyl)phenoxy)phosphoryl)-amino)propanoate], for which the EC50 is 360 nM.
As for `Nc1ccn([C@@H]2O[C@H](CO)[C@@H](O)C2(Cl)Cl)c(=O)n1` [Example 11, 4-Amino-1-((2R,4R,5R)-3,3-dichloro-4-hydroxy-5-(hydroxymethyl)tetrahydrofuran-2-yl)pyrimidin-2(1H)-one], the concentration giving a half-maximal response (EC50) was 13000 nM.
Turning to `CC(C)OC(=O)[C@H](C)NP(=O)(OC[C@H]1O[C@@H](n2ccc(N)nc2=O)C(Cl)(Cl)[C@@H]1O)Oc1ccccc1` (stereo partly drawn) [Example 12, (2S)-isopropyl 2-(((((2R,3R,5R)-5-(4-Amino-2-oxopyrimidin-1(2H)-yl)-4,4-dichloro-3-hydroxytetrahydrofuran-2-yl)methoxy)(phenoxy)phosphoryl)amino)propanoate], the EC50 is 170 nM.
In the case of `CC(C)OC(=O)[C@@H](C)NP(=O)(OC[C@H]1O[C@@H](n2ccc(=O)[nH]c2=O)C(Cl)(Cl)[C@@H]1O)Oc1ccccc1` (stereo partly drawn) [Example 14, (2R)-Isopropyl 2-(((((2R,3R,5R)-4,4-dichloro-5-(2,4-dioxo-3,4-dihydropyrimidin-1(2H)-yl)-3-hydroxytetrahydrofuran-2-yl)methoxy)(phenoxy)phosphoryl)amino)propanoate], the EC50 came out at 5700 nM.

The next experiment addresses HCV NS5B-21 (UniProt Q9WMX2). Put plainly: HCV NS5B-21 SPA enzyme assay. Conditions: triphosphate tested. Type of experiment: biochemical. How it is done:
It is this triphosphate which is believed to be the antivirally active species. The enzyme assay described here may be used to confirm that compounds of the invention are antivirally active as the 5-triphosphate metabolite.
The enzyme assay measures the inhibitory effect of triphosphate compounds in an HCV NS5B-21 (21-amino acid C-terminally truncated version) SPA assay (scintillation proximity assay). The assay is performed by evaluating the amount of radiolabelled ATP incorporated by HCV NS5B-21 into newly synthesized RNA using an heterogeneous biotinylated RNA template.
To determine IC50 values the compounds are tested at various concentrations in a final volume of 100 μl of reaction mixture. The reaction is stopped by addition of 0.5M EDTA solution. The samples are transferred into flashplates precoated with streptavidin. The incorporated radioactivity is quantified using a scintillation counter (Wallac Microbeta Trilux).
The assay should include enzyme controls (about four, containing 1 μl DMSO instead of inhibitor) and background control containing all ingredients except template.
Compounds are serially diluted in DMSO on a separate dilution plate to 100× the final desired assay concentrations. […]
Incubate the plate over night and read the flash plate in the Microbeta Trilux using the protocol Flash plates H3.
IC50 is determined using Graphpad Prism. […]
A word on the Ki: it is the equilibrium dissociation constant of an inhibitor or competing ligand from its target. A high value points to weaker binding. Compound `O=c1ccn([C@@H]2O[C@H](COP(=O)(O)OP(=O)(O)OP(=O)(O)O)[C@@H](O)C2(Cl)Cl)c(=O)[nH]1` [Example 3, Lithium((2R,3R,5R)-4,4-dichloro-5-(2,4-dioxo-3,4-dihydropyrimidin-1(2H)-yl)-3-hydroxytetrahydrofuran-2-yl)methyl triphosphate] gave a Ki of 1600 nM.
Take `Nc1ccn([C@@H]2O[C@H](COP(=O)(O)OP(=O)(O)OP(=O)(O)O)[C@@H](O)C2(Cl)Cl)c(=O)n1` [Example 17, ((2R,3R,5R)-5-(4-Amino-2-oxopyrimidin-1(2H)-yl)-4,4-dichloro-3-hydroxytetrahydrofuran-2-yl)methyl tetrahydrogen triphosphate]: the inhibitory constant (Ki) was determined as 170 nM.

Another experiment relates to genotype 1b HCV replicon.
Assay: not given
To be noted: from WO 2012/142085; cited from earlier work.
In the case of `CC(C)OC(=O)[C@H](C)OP(=O)(OC[C@H]1O[C@@H](n2ccc(N)nc2=O)[C@](C)(Cl)[C@@H]1O)Oc1ccccc1` (stereo partly drawn) [compound 8 of Merck WO2012/142085], the half-maximal effective concentration (EC50) is 34000 nM.
In the case of `CC1(Cl)C(O)C(CO)OC1n1ccc(N)nc1=O` (stereo not drawn) [corresponding nucleoside], the EC50 was 10000 nM.
